Test results taken from patent publication US20200017496A1 (priority 2017, published 2020).
Read-outs that look alike come from different tables or passages of the source.

How the values were obtained:
Experiment in all cases: MIC of compounds alone and combined with antibacterials, broth microdilution (CLSI)
Type in all cases: cell-based
[1] = system: Klebsiella pneumoniae (KPN) isolates; conditions: for MIC: Klebsiella pneumoniae
In short: (§1)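 Log-phase bacteria at a final 5·10^5 CFU/mL in cation-adjusted Mueller-Hinton broth were incubated 16-20 h at 35° C in ambient air with compound alone or with an antibacterial. MIC was the lowest concentration preventing visible growth; combination MIC of the antibacterial was read at each compound concentration.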

[2] = system: Morganella morganii (MMO) isolates; conditions: for MIC: Morganella morganii, ATB alone, read-out: MIC
In short: as §1

[3] = system: Providencia stuartii (PST) isolates
In short: as §1

[4] = system: Serratia marcescens (SMA) isolates; conditions: for MIC: Serratia marcescens
In short: as §1

Compound: CC(C)(O/N=C(\C(=O)N[C@@H]1C(=O)N2C(C(=O)[O-])=C(C[n+]3ccccc3)CS[C@H]12)c1csc(N)n1)C(=O)O [CAZ, Ceftazidime]
- MIC ATB in combination ([1]; KPN UFR68, AF1 @ 8 μg/mL): 1 µg/mL
- MIC ATB in combination ([1]; KPN UFR76, AF1 @ 4 μg/mL): 16 µg/mL
- MIC ATB in combination ([1]; KPN UFR76, AF1 @ 8 μg/mL): 16 µg/mL
- MIC ATB in combination ([1]; KPN UFR77, AF1 @ 4 μg/mL): 4 µg/mL
- MIC ATB in combination ([1]; KPN UFR77, AF1 @ 8 μg/mL): 2 µg/mL
- MIC ATB in combination ([1]; KPN UFR78, AF1 @ 8 μg/mL): 32 µg/mL
- MIC ATB in combination ([1]; KPN UFR79, AF1 @ 4 μg/mL): 2 µg/mL
- MIC ATB in combination ([1]; KPN UFR79, AF1 @ 8 μg/mL): 1 µg/mL
- MIC ATB in combination ([1]; KPN UFR80, AF1 @ 4 μg/mL): <=0.25 μg/mL
- MIC ATB in combination ([1]; KPN UFR80, AF1 @ 8 μg/mL): <=0.25 μg/mL
- MIC ATB in combination ([1]; KPN UFR81, AF1 @ 4 μg/mL): 2 µg/mL
- MIC ATB in combination ([1]; KPN UFR81, AF1 @ 8 μg/mL): 0.5 µg/mL
- MIC ATB in combination ([1]; KPN UFR215, AF1 @ 4 μg/mL): <=0.25 μg/mL
- MIC ATB in combination ([1]; KPN UFR215, AF1 @ 8 μg/mL): <=0.25 μg/mL
- MIC ATB in combination ([1]; KPN UFR216, AF1 @ 4 μg/mL): <=0.25 μg/mL
- MIC ATB in combination ([1]; KPN UFR216, AF1 @ 8 μg/mL): <=0.25 μg/mL
- MIC ATB in combination ([1]; KPN UFR217, AF1 @ 4 μg/mL): <=0.25 μg/mL
- MIC ATB in combination ([1]; KPN UFR217, AF1 @ 8 μg/mL): <=0.25 μg/mL
- MIC ATB in combination ([1]; KPN UFR219, AF1 @ 4 μg/mL): 0.5 µg/mL
- MIC ATB in combination ([1]; KPN UFR219, AF1 @ 8 μg/mL): <=0.25 μg/mL
- MIC ATB in combination ([1]; KPN UFR220, AF1 @ 4 μg/mL): 2 µg/mL
- MIC ATB in combination ([1]; KPN UFR220, AF1 @ 8 μg/mL): 1 µg/mL
- MIC ATB in combination ([1]; KPN UFR221, AF1 @ 4 μg/mL): 0.5 µg/mL
- MIC ATB in combination ([1]; KPN UFR221, AF1 @ 8 μg/mL): <=0.25 μg/mL
- MIC ATB in combination ([1]; KPN UFR222, AF1 @ 4 μg/mL): 8 µg/mL
- MIC ATB in combination ([1]; KPN UFR222, AF1 @ 8 μg/mL): 4 µg/mL
- MIC ATB in combination ([1]; KPN UFR227O, AF1 @ 4 μg/mL): 2 µg/mL
- MIC ATB in combination ([1]; KPN UFR227O, AF1 @ 8 μg/mL): 1 µg/mL
- MIC ([1]; BAA1898): 256 µg/mL
- MIC ([1]; strain KPN 200327 (TEM-1, SHV-1, CTX-M-15, OXA-1), ATB alone, read-out: MIC): 32 µg/mL
- MIC ([1]; strain KPN LIB (SHV-11, OXA-48), ATB alone, read-out: MIC): 0.25 µg/mL
- MIC ([1]; strain KPN UFR22_O (TEM-1, SHV-1, OXA-48), ATB alone, read-out: MIC): 2 µg/mL
- MIC ([1]; strain KPN UFR23 (TEM-1, SHV-1, OXA-48), ATB alone, read-out: MIC): 0.5 µg/mL
- MIC ([1]; strain KPN UFR77 (CMY-2), ATB alone, read-out: MIC): 32 µg/mL
- MIC ([1]; strain KPN UFR79 (DHA-1, OXA-1), ATB alone, read-out: MIC): 16 µg/mL
- MIC ([1]; strain KPN UFR80 (SHV-11, DHA-1, OXA-1), ATB alone, read-out: MIC): 0.5 µg/mL
- MIC ([1]; strain KPN UFR221 (TEM-1, SHV-11, CTX-M-14, DHA-1), ATB alone, read-out: MIC): 16 µg/mL
- MIC ATB in combination ([2]; MMO 200321, AF1 @ 4 μg/mL): <=0.25 μg/mL
- MIC ATB in combination ([2]; MMO UFR144, AF1 @ 4 μg/mL): <=0.25 μg/mL
- MIC ATB in combination ([2]; MMO UFR144, AF1 @ 8 μg/mL): <=0.25 μg/mL
- MIC ATB in combination ([2]; MMO UFR240, AF1 @ 4 μg/mL): <=0.25 μg/mL
- MIC ATB in combination ([2]; MMO UFR240, AF1 @ 8 μg/mL): <=0.25 μg/mL
- MIC ATB in combination ([2]; MMO UFR241, AF1 @ 4 μg/mL): <=0.25 μg/mL
- MIC ATB in combination ([2]; MMO UFR241, AF1 @ 8 μg/mL): <=0.25 μg/mL
- MIC ATB in combination ([2]; MMO UFR242, AF1 @ 4 μg/mL): 2 µg/mL
- MIC ATB in combination ([2]; MMO UFR242, AF1 @ 8 μg/mL): 0.25 µg/mL
- MIC ATB in combination ([2]; MMO UFR243, AF1 @ 4 μg/mL): <=0.25 μg/mL
- MIC ATB in combination ([2]; MMO UFR243, AF1 @ 8 μg/mL): <=0.25 μg/mL
- MIC ATB in combination ([2]; MMO UFR244, AF1 @ 4 μg/mL): <=0.25 μg/mL
- MIC ATB in combination ([2]; MMO UFR244, AF1 @ 8 μg/mL): <=0.25 μg/mL
- MIC ATB in combination ([2]; MMO UFR245, AF1 @ 4 μg/mL): <=0.25 μg/mL
- MIC ATB in combination ([2]; MMO UFR245, AF1 @ 8 μg/mL): <=0.25 μg/mL
- MIC ATB in combination ([2]; MMO UFR246, AF1 @ 4 μg/mL): <=0.25 μg/mL
- MIC ATB in combination ([2]; MMO UFR246, AF1 @ 8 μg/mL): <=0.25 μg/mL
- MIC ([2]; strain MMO 200321 (TEM-1, CTX-M-15, OXA-1)): 16 µg/mL
- MIC ([2]; strain MMO UFR144 (TEM-1, CTX-M-15)): 8 µg/mL
- MIC ([2]; strain MMO UFR241 (TEM-1, CTX-M-15)): 8 µg/mL
- MIC ([2]; strain MMO UFR242 (TEM-52)): 32 µg/mL
- MIC ([2]; strain MMO UFR243 (DHA-1)): 1 µg/mL
- MIC ([2]; strain MMO UFR245 (DHA-1)): 8 µg/mL
- MIC ([2]; strain MMO UFR246 (DHA-1)): 4 µg/mL
- MIC ATB in combination ([3]; PST UFR94, AF1 @ 4 μg/mL): 0.5 µg/mL
- MIC ATB in combination ([3]; PST UFR94, AF1 @ 8 μg/mL): <=0.25 μg/mL
- MIC ATB in combination ([3]; PST UFR95, AF1 @ 4 μg/mL): 1 µg/mL
- MIC ATB in combination ([3]; PST UFR95, AF1 @ 8 μg/mL): 0.5 µg/mL
- MIC ATB in combination ([3]; PST UFR235, AF1 @ 4 μg/mL): 1 µg/mL
- MIC ATB in combination ([3]; PST UFR235, AF1 @ 8 μg/mL): <=0.25 μg/mL
- MIC ([3]; Providencia stuartii, strain PST UFR94 (CTX-M-14), ATB alone, read-out: MIC): 1 µg/mL
- MIC ATB in combination ([4]; SMA UFR30, AF1 @ 4 μg/mL): <=0.25 μg/mL
- MIC ATB in combination ([4]; SMA UFR30, AF1 @ 8 μg/mL): <=0.25 μg/mL
- MIC ATB in combination ([4]; SMA UFR134, AF1 @ 8 μg/mL): <=0.25 μg/mL
- MIC ATB in combination ([4]; SMA UFR135, AF1 @ 4 μg/mL): 2 µg/mL
- MIC ATB in combination ([4]; SMA UFR135, AF1 @ 8 μg/mL): 1 µg/mL
- MIC ATB in combination ([4]; SMA UFR136, AF1 @ 4 μg/mL): 2 µg/mL
- MIC ATB in combination ([4]; SMA UFR136, AF1 @ 8 μg/mL): 1 µg/mL
- MIC ATB in combination ([4]; SMA UFR137, AF1 @ 4 μg/mL): <=0.25 μg/mL
- MIC ATB in combination ([4]; SMA UFR137, AF1 @ 8 μg/mL): <=0.25 μg/mL
- MIC ATB in combination ([4]; SMA UFR138, AF1 @ 4 μg/mL): <=0.25 μg/mL
- MIC ATB in combination ([4]; SMA UFR138, AF1 @ 8 μg/mL): <=0.25 μg/mL
- MIC ATB in combination ([4]; SMA UFR139, AF1 @ 4 μg/mL): <=0.25 μg/mL
- MIC ATB in combination ([4]; SMA UFR139, AF1 @ 8 μg/mL): <=0.25 μg/mL
- MIC ATB in combination ([4]; SMA UFR141, AF1 @ 8 μg/mL): <=0.25 μg/mL
- MIC ATB in combination ([4]; SMA UFR239, AF1 @ 4 μg/mL): 8 µg/mL
- MIC ATB in combination ([4]; SMA UFR239, AF1 @ 8 μg/mL): 4 µg/mL
- MIC [4]: > 256 µg/mL
- MIC ([4]; strain SMA UFR30 (OXA-405), ATB alone, read-out: MIC): 8 µg/mL
- MIC ([4]; strain SMA UFR134 (TEM-1, BES-1), ATB alone, read-out: MIC): 8 µg/mL
- MIC ([4]; strain SMA UFR135 (TEM-1, KPC-2), ATB alone, read-out: MIC): 32 µg/mL
- MIC ([4]; strain SMA UFR138 (SME-1), ATB alone, read-out: MIC): ≤ 0.25 µg/mL
- MIC ([4]; strain SMA UFR139 (SME-2), ATB alone, read-out: MIC): ≤ 0.25 µg/mL
- MIC ([4]; strain SMA UFR141 (OXA-48), ATB alone, read-out: MIC): 1 µg/mL
- MIC ([4]; strain SMA UFR239 (ESAC), ATB alone, read-out: MIC): 32 µg/mL
- MIC ATB in combination ([4]; strain SMA UFR238, antibacterial combined with AF1 @ 8 μg/mL): <=0.25 μg/mL
